Measurements as given in patent publication US12257264B2, “Combination therapy for HIV with adenosine derivative and capsid inhibitors” (Brii Biosciences, Inc., priority 2021, dated 2025).
“And” between values parts separate entries of the source, which are not always exact repeats. Equal entries are not always repeated.

Assay: Plasma exposures following IV infusion alone or in combination to Sprague-Dawley rats
Experimental: The pharmacokinetics of EFdA and prodrug formula 4-A, as well as lenacapavir were studied in rats after IV infusion administration alone or in combination at a dose of 1.0 mg/kg each.
Formulations: The prodrugs and lenacapavir were formulated alone or in combination as solutions at 1.0 mg/mL each in 20% […], 10% Solutol aqueous solution within 0.5 hour prior to dose.
Dose Administration and Sample Collection: The in-life phase of this study was conducted at the WuXi Apptec (WuXi) at Shanghai, China in accordance with the WuXi Institutional Animal Care and Use Committee (IACUC) standard animal procedures along with the IACUC guidelines that are in compliance with the Animal Welfare Act, the Guide for the Care and Use of Laboratory Animals. and was approved by the IACUA Committee. Male Sprague-Dawley rats (0.262+/−0.019 kg) were used for the studies. Each drug was administered as a single dose by 30-min IV infusion (1 ml/kg) alone or in combination. Plasma samples were collected at 0 (pre-dose), 5, 10, 15 and 30 min, 1, 2, 4, 7, 12 and 24 h post-dose. Blood (approximately 0.1 mL) was processed immediately for plasma by centrifugation at 3,200 g at 4° C. for 10 min within half an hour of collection. Plasma samples were frozen and maintained at −70° C. until analyzed. To stabilize the prodrug at the sample collection and subsequent analysis, the following stabilizing reagents were added to the blood collection K2EDTA tubes on wet ice prior to sample collection: for each 100 mL of blood, 10 mL of premade inhibitor cocktail consists of 600 mM Citric Acid, 400 mM PMSF, 400 mM NaF, and 400 mM Dichlorvos.
Determination of EFdA and Prodrugs in plasma: Briefly, plasma (20 μL) was mixed with 100 l acetonitrile to precipitate protein. Consistent with sample collection procedure, the same cocktail protocol was also added to stabilize the prodrug in the standard and QC samples.
Bioanalysis: A Sciex API-6500 Plus triplequadrupole mass spectrometer coupled with a Waters Acquity UPLC system (Framingham, MA 01701) was used for quantitative analysis of plasma samples. The column was a Waters HSS T3 column (2.1×50 mm, 1.8 micrometer). The mobile phases used were: A, 0.1% formic acid in water; B, 0.1% formic acid in acetonitrile. For the analysis of EFdA and prodrugs in plasma, the flow rate was 0.6 mL/min with a total run time of 2.0 min. […] Detection of the prodrug and EFdA were achieved using positive ion electrospray mass spectroscopic mode using unit resolution mode. Multiple reaction monitoring (MRM) modes were used to quantify both prodrug and EFdA, e.g. the MRM transition for EFdA was 294.0-154.2 Da, and the transition for prodrug 4-A was 449.3-164.9 Da. For the analysis of lenacapavir in plasma, the flow rate was 0.7 mL/min with a total run time of 1.5 min. The HPLC gradient was initiated at 95% A/5% B for 0.50 min, followed by linear gradient increase to […] over the next 0.2 min; the gradient was subsequently maintained at 100% of mobile B over the next 0.7 min before ramping down to 95% mobile phase A within the following 0.1 min. Detection of lenacapavir was achieved using positive ion electrospray mass spectroscopic mode using unit resolution mode. Multiple reaction monitoring (MRM) modes were used to quantify lenacapavir, e.g. the MRM transition for lenacapavir was 968.1-869.4 Da. Peak areas were integrated by the Sciex program Analyst®, version 1.6.3, operating on a Windows 7 computer where concentrations were determined by a weighted (1/x2) linear regression of peak area ratios (peak area of EFdA/peak area of corresponding IS) versus the nominal concentrations of the plasma calibration standards. Calculations were performed on unrounded numbers. Overall, Analyst® determined the precision and accuracy for the calibration standards and QC samples.

[1] = Prodrug formula 4-A IV infusion 1.0 mg/kg alone, 4.00 hrs, individual animals
[2] = Prodrug formula 4-A IV infusion 1.0 mg/kg alone, 7.00 hrs, individual animals
[3] = Prodrug formula 4-A IV infusion 1.0 mg/kg alone, 12.0 hrs, individual animals
[4] = Prodrug formula 4-A IV infusion 1.0 mg/kg alone, 24.0 hrs, individual animals
[5] = Prodrug formula 4-A IV infusion 1.0 mg/kg with Lenacapavir, 7.00 hrs, individual animals
[6] = Prodrug formula 4-A IV infusion 1.0 mg/kg with Lenacapavir, 12.0 hrs, individual animals
[7] = Prodrug formula 4-A IV infusion 1.0 mg/kg with Lenacapavir, 24.0 hrs, individual animals
[8] = Prodrug formula 4-A IV infusion 1.0 mg/kg with Lenacapavir, 48.0 hrs, individual animals
[9] = Prodrug formula 4-A IV infusion 1.0 mg/kg with Lenacapavir, 72.0 hrs, individual animals

## C#C[C@]1(COC(=O)OCc2oc(=O)oc2C)O[C@@H](n2cnc3c(N)nc(F)nc32)C[C@@H]1O [Formula 4-A, ((2R,3S,5R)-5-(6-amino-2-fluoro-9H-purin-9-yl)-2-ethynyl-3-hydroxytetrahydrofuran-2-yl)methyl ((5-methyl-2-oxo-1,3-dioxol-4-yl)methyl) carbonate]
Prodrug formula 4-A IV infusion 1.0 mg/kg alone, 0.0830 hrs, individual animals
  Prodrug formula 4A Concentrations in Rat Plasma When Dosed alone: BQL
Prodrug formula 4-A IV infusion 1.0 mg/kg alone, 0.167 hrs, individual animals
  Prodrug formula 4A Concentrations in Rat Plasma When Dosed alone: BQL
Prodrug formula 4-A IV infusion 1.0 mg/kg alone, 0.250 hrs, individual animals
  Prodrug formula 4A Concentrations in Rat Plasma When Dosed alone: BQL
Prodrug formula 4-A IV infusion 1.0 mg/kg alone, 0.500 hrs, individual animals
  Prodrug formula 4A Concentrations in Rat Plasma When Dosed alone: BQL
Prodrug formula 4-A IV infusion 1.0 mg/kg alone, 1.00 hrs, individual animals
  Prodrug formula 4A Concentrations in Rat Plasma When Dosed alone: BQL
Prodrug formula 4-A IV infusion 1.0 mg/kg alone, 2.00 hrs, individual animals
  Prodrug formula 4A Concentrations in Rat Plasma When Dosed alone: BQL
[1]
  EFdA Concentrations in Rat Plasma When Dosed Alone: BQL
  Prodrug formula 4A Concentrations in Rat Plasma When Dosed alone: BQL
[2]
  EFdA Concentrations in Rat Plasma When Dosed Alone: BQL
  Prodrug formula 4A Concentrations in Rat Plasma When Dosed alone: BQL
[3]
  EFdA Concentrations in Rat Plasma When Dosed Alone: BQL
  Prodrug formula 4A Concentrations in Rat Plasma When Dosed alone: BQL
[4]
  EFdA Concentrations in Rat Plasma When Dosed Alone: BQL
  Prodrug formula 4A Concentrations in Rat Plasma When Dosed alone: BQL
Prodrug formula 4-A IV infusion 1.0 mg/kg with Lenacapavir, 0.0830 hrs, individual animals
  Prodrug formula 4A Concentrations in Rat Plasma When Dosed with Lenacapavir: 1.37 ng/mL and 5.19 ng/mL and 1.54 ng/mL and 2.80 ng/mL
Prodrug formula 4-A IV infusion 1.0 mg/kg with Lenacapavir, 0.167 hrs, individual animals
  Prodrug formula 4A Concentrations in Rat Plasma When Dosed with Lenacapavir: BQL
Prodrug formula 4-A IV infusion 1.0 mg/kg with Lenacapavir, 0.250 hrs, individual animals
  Prodrug formula 4A Concentrations in Rat Plasma When Dosed with Lenacapavir: 1.13 ng/mL and BQL (2×) and 2.38 ng/mL
Prodrug formula 4-A IV infusion 1.0 mg/kg with Lenacapavir, 0.500 hrs, individual animals
  Prodrug formula 4A Concentrations in Rat Plasma When Dosed with Lenacapavir: BQL
Prodrug formula 4-A IV infusion 1.0 mg/kg with Lenacapavir, 1.00 hrs, individual animals
  Prodrug formula 4A Concentrations in Rat Plasma When Dosed with Lenacapavir: BQL
Prodrug formula 4-A IV infusion 1.0 mg/kg with Lenacapavir, 2.00 hrs, individual animals
  Prodrug formula 4A Concentrations in Rat Plasma When Dosed with Lenacapavir: BQL
Prodrug formula 4-A IV infusion 1.0 mg/kg with Lenacapavir, 4.00 hrs, individual animals
  Prodrug formula 4A Concentrations in Rat Plasma When Dosed with Lenacapavir: BQL
[5]
  EFdA Concentrations in Rat Plasma When Dosed with Lenacapavir: BQL
  Prodrug formula 4A Concentrations in Rat Plasma When Dosed with Lenacapavir: BQL
[6]
  EFdA Concentrations in Rat Plasma When Dosed with Lenacapavir: BQL
  Prodrug formula 4A Concentrations in Rat Plasma When Dosed with Lenacapavir: BQL
[7]
  EFdA Concentrations in Rat Plasma When Dosed with Lenacapavir: BQL
  Prodrug formula 4A Concentrations in Rat Plasma When Dosed with Lenacapavir: BQL
[8]
  EFdA Concentrations in Rat Plasma When Dosed with Lenacapavir: BQL
  Prodrug formula 4A Concentrations in Rat Plasma When Dosed with Lenacapavir: BQL
[9]
  EFdA Concentrations in Rat Plasma When Dosed with Lenacapavir: BQL
  Prodrug formula 4A Concentrations in Rat Plasma When Dosed with Lenacapavir: BQL
male, Sprague-Dawley, rat, in vivo, 1 mg/kg, Prodrug formula 4A Concentrations in Rat Plasma When Dosed alone, Prodrug formula 4-A IV infusion 1.0 mg/kg alone, 0.250 hrs, individual animals
  concentration at 0.25 h: 2.27 ng/mL
male, Sprague-Dawley, rat, in vivo, Prodrug formula 4A Concentrations in Rat Plasma When Dosed with Lenacapavir, Prodrug formula 4-A IV infusion 1.0 mg/kg with Lenacapavir, 0.0830 hrs, Mean
  concentration at 0.083 h: 2.73 ng/mL
male, Sprague-Dawley, rat, in vivo, Prodrug formula 4A Concentrations in Rat Plasma When Dosed with Lenacapavir, Prodrug formula 4-A IV infusion 1.0 mg/kg with Lenacapavir, 0.250 hrs, Mean
  concentration at 0.25 h: 1.76 ng/mL
rats, in the absence and presences of lenacapavir
  Prodrug detected in the systemic circulation: minimal prodrug detected in the systemic circulation
